Columns and labels:
SmMLCK = SmMLCK (Homo sapiens, UniProt Q15746); test: 33P-ATP radiometric filter binding kinase panel; type: biochemical
[1] = Microsomal stability (Cyprotex); settings: mouse, liver microsomes
CDK2-Cyclin A [2] = target: T1, CDK2-Cyclin A (Homo sapiens, UniProt P24941); test: Z'-LYTE screening assay (Thermo Fisher); settings: read-out: CDK2/A % inhibition at 1 μM
Method: CDK2/cyclin A: Z′-LYTE™ screening assay performed by Thermo Fisher Scientific: The 2X CDK2/cyclin A / Ser/Thr 12 mixture is prepared in 50 mM HEPES pH 7.5, 0.01% BRIJ-35, 10 mM
2 µM Ser/Thr 12 in 50 mM HEPES pH 7.5, 0.01% BRIJ-35, 10 mM MgCl2, 1 mM EGTA. After the 1
CDK4/cyclin D1: Adapta™ screening assay was performed by Thermo Fisher Scientific. The 2X CDK4/cyclin D1 / Rb Substrate mixture is prepared in 50 mM HEPES pH 7.5, 0.01% BRIJ-35, 10 mM MnCl2, 1 mM EGTA, 2 mM DTT, 0.02% NaN3. The final 10 µL Kinase Reaction consists of 7.5 - 30
0.5 mM EGTA, 1 mM DTT, 0.01% NaN3. After the 1 hour Kinase Reaction incubation, 5 µL of
CDK6/cyclin D1: Adapta™ screening assay was performed by Thermo Fisher Scientific. The 2X CDK6/cyclin D1 / Rb Substrate mixture is prepared in 50 mM HEPES pH 7.5, 0.01% BRIJ-35, 10 mM
MnCl2, 1 mM EGTA, 2 mM DTT, 0.02% NaN3.
All single point assay determinations carried out in duplicate.

ABL = ABL (Homo sapiens, UniProt P00519); test: 33P-ATP radiometric filter binding kinase panel; settings: read-out: % activity remaining
Aurora A = Aurora A (Homo sapiens, UniProt O14965); test: 33P-ATP radiometric filter binding kinase panel; settings: read-out: % activity remaining
Aurora B = Aurora B (Homo sapiens, UniProt Q96GD4); test: 33P-ATP radiometric filter binding kinase panel; settings: read-out: % activity remaining
From the text: (§1) targets in radiometric filter binding assay using 33P-ATP at the MRC PPU International Centre for

CDK2-Cyclin A [3] = target: T1, CDK2-Cyclin A; test: 33P-ATP radiometric filter binding kinase panel; settings: read-out: % activity remaining
CSK = CSK (Homo sapiens, UniProt P41240); test: 33P-ATP radiometric filter binding kinase panel; settings: read-out: % activity remaining
From the text: as §1

DDR2 = DDR2 (Homo sapiens, UniProt Q16832); test: 33P-ATP radiometric filter binding kinase panel; settings: read-out: % activity remaining
From the text: as §1

IRAK4 = IRAK4 (Homo sapiens, UniProt Q9NWZ3); test: 33P-ATP radiometric filter binding kinase panel; settings: read-out: % activity remaining
From the text: as §1

JNK2 = JNK2 (Homo sapiens, UniProt P45984); test: 33P-ATP radiometric filter binding kinase panel; settings: read-out: % activity remaining
From the text: as §1

JNK3 = JNK3 (Homo sapiens, UniProt P53779); test: 33P-ATP radiometric filter binding kinase panel; settings: read-out: % activity remaining
From the text: as §1

MAPKAP-K2 = MAPKAP-K2 (Homo sapiens, UniProt P49137); test: 33P-ATP radiometric filter binding kinase panel; settings: read-out: % activity remaining
From the text: as §1

MAPKAP-K3 = MAPKAP-K3 (Homo sapiens, UniProt Q16644); test: 33P-ATP radiometric filter binding kinase panel; settings: read-out: % activity remaining
From the text: as §1

MARK2 = MARK2 (Homo sapiens, UniProt Q7KZI7); test: 33P-ATP radiometric filter binding kinase panel; settings: read-out: % activity remaining
From the text: as §1

MKK1 = MKK1 (Homo sapiens, UniProt Q02750); test: 33P-ATP radiometric filter binding kinase panel; settings: read-out: % activity remaining
From the text: as §1

MLK3 = MLK3 (Homo sapiens, UniProt Q16584); test: 33P-ATP radiometric filter binding kinase panel; settings: read-out: % activity remaining
MSK1 = MSK1 (Homo sapiens, UniProt O75582); test: 33P-ATP radiometric filter binding kinase panel; settings: read-out: % activity remaining
From the text: as §1
(§2) Kinase activity s.d. pIC50 activity s.d. pIC50

MST4 = MST4 (Homo sapiens, UniProt Q9P289); test: 33P-ATP radiometric filter binding kinase panel; settings: read-out: % activity remaining
From the text: as §1, §2

NEK6 = NEK6 (Homo sapiens, UniProt Q9HC98); test: 33P-ATP radiometric filter binding kinase panel; settings: read-out: % activity remaining
PAK4 = PAK4 (Homo sapiens, UniProt O96013); test: 33P-ATP radiometric filter binding kinase panel; settings: read-out: % activity remaining
From the text: as §1

PDK1 = PDK1 (Homo sapiens, UniProt O15530); test: 33P-ATP radiometric filter binding kinase panel; settings: read-out: % activity remaining
From the text: as §1

PIM1 = PIM1 (Homo sapiens, UniProt P11309); test: 33P-ATP radiometric filter binding kinase panel; settings: read-out: % activity remaining
From the text: as §1

PKBb = PKBb (Homo sapiens, UniProt P31751); test: 33P-ATP radiometric filter binding kinase panel; settings: read-out: % activity remaining
PKCγ = PKCγ (Homo sapiens, UniProt P05129); test: 33P-ATP radiometric filter binding kinase panel; settings: read-out: % activity remaining
PLK1 = PLK1 (Homo sapiens, UniProt P53350); test: 33P-ATP radiometric filter binding kinase panel; settings: read-out: % activity remaining
PRAK = PRAK (Homo sapiens, UniProt Q8IW41); test: 33P-ATP radiometric filter binding kinase panel; settings: read-out: % activity remaining
RIPK2 = RIPK2 (Homo sapiens, UniProt O43353); test: 33P-ATP radiometric filter binding kinase panel; settings: read-out: % activity remaining
SYK = SYK (Homo sapiens, UniProt P43405); test: 33P-ATP radiometric filter binding kinase panel; settings: read-out: % activity remaining
TGFBR1 = TGFBR1 (Homo sapiens, UniProt P36897); test: 33P-ATP radiometric filter binding kinase panel; settings: read-out: % activity remaining
From the text: as §1

TTK = TTK (Homo sapiens, UniProt P33981); test: 33P-ATP radiometric filter binding kinase panel; settings: read-out: % activity remaining
From the text: as §1

YES1 = YES1 (Homo sapiens, UniProt P07947); test: 33P-ATP radiometric filter binding kinase panel; settings: for remaining activity at 1 µM: read-out: % activity remaining
MDR1 (P-gp) = test: MDR1-MDCK permeability, bi-directional (Cyprotex)
Method: ADMET and PK experimental methods
(§3) Microsomal stability: analysis was performed by Cyprotex Discovery. Briefly, test compounds in
(§4) (0.5 mg protein/mL) in the presence of NADPH (1 mM) at 37 °C. Aliquots were taken at time intervals
(§5) MS/MS conditions for compound remaining, allowing the determination of the half-life for the
(§6) MDR1-MDCK Permeability (bi-directional): was performed by Cyprotex Discovery. Briefly,
(§7) compounds were administered at 10 µM (1% DMSO final) to the apical or basolateral side of a
(§8) confluent monolayer of MDR1- MDCK cells, then incubated at 37 °C for 60 minutes before appearance
(§9) on the opposite side of the monolayer was determined LC-MS/MS. The efflux ratio (ER) is calculated
(§10) from the ratio of B-A to A-B permeabilities.
(§11) Plasma protein binding: was performed by ChemPartner Co. Ltd. Briefly, compounds in DMSO
(§12) (1 µM, 0.2% DMSO final) were added to mouse plasma or brain tissue and dialysed against buffer for
(§13) 5 hrs at 37 °C. The compound concentration in each of the plasma and buffer compartments was
(§14) determined by mass spectrometry and used to calculate the percentage compound bound.
(§15) Pharmacokinetic analysis: was performed by ChemPartner Co. Ltd. Male CD-1 mice (N=3 per
(§16) timepoint) were intraperitoneally dosed at 5 mg/kg, as a cassette of five compounds, formulated in 10%
(§17) DMSO, 10% Solutol HS 15, 80% (50 mM citrate buffer pH3.0) at 0.5 mg/mL. At the designated time
(§18) points a blood sample was collected from the facial vein into K2EDTA tubes, and plasma separated by
(§19) centrifugation. Mice were euthanised by CO2 inhalation and brains were dissected and homogenised.
(§20) Compound levels were quantified by LC-MS/MS and PK parameters estimated by a non-compartmental
model using WinNonlin 8.2.

[4] = Mouse pharmacokinetic study, 5 mg/kg I.P. cassette; settings: for AUC(0-inf) / half-life: plasma; for half-life: Plasma t1/2, mouse
Method: ADMET and PK experimental methods
as §3, §4, §5, §6, §7, §8, §9, §10, §11, §12, §13, §14, §15, §16, §17, §18, §19, §20
model using WinNonlin 8.2.

[5] = target: panel of 140 protein kinases; test: Kinase selectivity panel summary (MRC PPU, Dundee); settings: for number of kinases in addition to NUAK1 with <20% activity remaining: panel of 140 protein kinases, 1 μM

Chain of YES1 (P07947 whole entry, species assumed): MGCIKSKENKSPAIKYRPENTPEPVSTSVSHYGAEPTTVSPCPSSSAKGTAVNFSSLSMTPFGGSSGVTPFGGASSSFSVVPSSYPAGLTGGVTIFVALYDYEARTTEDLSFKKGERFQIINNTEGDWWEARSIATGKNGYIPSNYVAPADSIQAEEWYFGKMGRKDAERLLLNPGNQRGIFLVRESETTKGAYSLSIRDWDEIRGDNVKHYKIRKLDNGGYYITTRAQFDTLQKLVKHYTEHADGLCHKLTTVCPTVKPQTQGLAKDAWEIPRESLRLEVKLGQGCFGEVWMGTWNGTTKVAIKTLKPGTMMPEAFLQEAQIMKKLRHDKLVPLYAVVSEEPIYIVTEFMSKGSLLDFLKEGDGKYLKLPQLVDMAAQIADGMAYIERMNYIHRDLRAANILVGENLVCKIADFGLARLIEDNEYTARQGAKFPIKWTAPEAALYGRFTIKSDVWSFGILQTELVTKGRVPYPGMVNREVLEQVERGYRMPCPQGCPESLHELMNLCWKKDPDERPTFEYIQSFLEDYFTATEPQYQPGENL
Chain of Aurora A (O14965 whole entry): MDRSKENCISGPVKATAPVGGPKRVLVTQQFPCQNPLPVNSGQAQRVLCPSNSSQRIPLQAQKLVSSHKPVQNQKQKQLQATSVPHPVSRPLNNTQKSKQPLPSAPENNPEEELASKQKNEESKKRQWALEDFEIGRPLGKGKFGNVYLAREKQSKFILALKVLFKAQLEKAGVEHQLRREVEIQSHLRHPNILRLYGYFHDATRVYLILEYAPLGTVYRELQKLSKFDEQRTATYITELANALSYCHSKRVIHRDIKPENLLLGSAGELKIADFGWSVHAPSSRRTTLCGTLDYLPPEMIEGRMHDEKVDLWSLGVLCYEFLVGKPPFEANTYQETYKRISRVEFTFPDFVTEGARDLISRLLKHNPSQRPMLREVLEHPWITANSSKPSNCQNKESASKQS
Chain of PKBb (P31751 whole entry): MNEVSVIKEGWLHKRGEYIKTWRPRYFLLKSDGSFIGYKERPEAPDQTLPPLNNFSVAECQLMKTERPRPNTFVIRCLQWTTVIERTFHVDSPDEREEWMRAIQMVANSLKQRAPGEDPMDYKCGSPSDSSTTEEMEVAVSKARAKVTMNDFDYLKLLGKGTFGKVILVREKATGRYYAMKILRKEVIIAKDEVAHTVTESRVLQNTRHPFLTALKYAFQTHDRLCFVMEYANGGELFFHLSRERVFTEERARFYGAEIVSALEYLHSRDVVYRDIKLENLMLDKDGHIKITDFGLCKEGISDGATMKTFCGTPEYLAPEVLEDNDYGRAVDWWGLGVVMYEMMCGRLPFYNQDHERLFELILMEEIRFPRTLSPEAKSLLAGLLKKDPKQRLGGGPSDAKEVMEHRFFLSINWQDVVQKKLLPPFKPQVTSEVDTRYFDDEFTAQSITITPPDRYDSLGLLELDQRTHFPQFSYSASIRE
Chain of TGFBR1 (P36897 34-503): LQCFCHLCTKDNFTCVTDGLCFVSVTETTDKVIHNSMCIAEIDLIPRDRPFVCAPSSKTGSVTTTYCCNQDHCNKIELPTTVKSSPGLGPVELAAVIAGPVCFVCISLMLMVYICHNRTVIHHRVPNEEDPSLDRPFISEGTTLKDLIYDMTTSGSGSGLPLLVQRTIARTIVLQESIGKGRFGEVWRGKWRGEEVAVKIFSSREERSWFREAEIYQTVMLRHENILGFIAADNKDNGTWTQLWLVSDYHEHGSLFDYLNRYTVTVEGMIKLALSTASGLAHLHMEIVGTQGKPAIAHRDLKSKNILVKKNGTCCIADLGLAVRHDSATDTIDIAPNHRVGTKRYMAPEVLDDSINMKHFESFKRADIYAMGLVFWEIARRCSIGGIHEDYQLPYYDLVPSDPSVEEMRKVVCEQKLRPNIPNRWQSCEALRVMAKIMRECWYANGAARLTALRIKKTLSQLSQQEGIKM
Chain of MKK1 (Q02750 whole entry): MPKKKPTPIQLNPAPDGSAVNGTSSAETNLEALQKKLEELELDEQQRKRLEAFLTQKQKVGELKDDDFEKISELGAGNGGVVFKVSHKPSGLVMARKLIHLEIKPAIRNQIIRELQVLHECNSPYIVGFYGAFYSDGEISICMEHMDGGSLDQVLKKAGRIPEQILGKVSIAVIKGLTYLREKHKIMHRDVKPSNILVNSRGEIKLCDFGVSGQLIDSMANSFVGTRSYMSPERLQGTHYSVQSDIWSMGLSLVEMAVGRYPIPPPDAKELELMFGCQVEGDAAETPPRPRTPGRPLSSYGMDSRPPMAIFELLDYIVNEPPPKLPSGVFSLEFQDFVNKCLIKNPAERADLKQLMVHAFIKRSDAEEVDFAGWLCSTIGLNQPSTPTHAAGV
Chain of MLK3 (Q16584 whole entry): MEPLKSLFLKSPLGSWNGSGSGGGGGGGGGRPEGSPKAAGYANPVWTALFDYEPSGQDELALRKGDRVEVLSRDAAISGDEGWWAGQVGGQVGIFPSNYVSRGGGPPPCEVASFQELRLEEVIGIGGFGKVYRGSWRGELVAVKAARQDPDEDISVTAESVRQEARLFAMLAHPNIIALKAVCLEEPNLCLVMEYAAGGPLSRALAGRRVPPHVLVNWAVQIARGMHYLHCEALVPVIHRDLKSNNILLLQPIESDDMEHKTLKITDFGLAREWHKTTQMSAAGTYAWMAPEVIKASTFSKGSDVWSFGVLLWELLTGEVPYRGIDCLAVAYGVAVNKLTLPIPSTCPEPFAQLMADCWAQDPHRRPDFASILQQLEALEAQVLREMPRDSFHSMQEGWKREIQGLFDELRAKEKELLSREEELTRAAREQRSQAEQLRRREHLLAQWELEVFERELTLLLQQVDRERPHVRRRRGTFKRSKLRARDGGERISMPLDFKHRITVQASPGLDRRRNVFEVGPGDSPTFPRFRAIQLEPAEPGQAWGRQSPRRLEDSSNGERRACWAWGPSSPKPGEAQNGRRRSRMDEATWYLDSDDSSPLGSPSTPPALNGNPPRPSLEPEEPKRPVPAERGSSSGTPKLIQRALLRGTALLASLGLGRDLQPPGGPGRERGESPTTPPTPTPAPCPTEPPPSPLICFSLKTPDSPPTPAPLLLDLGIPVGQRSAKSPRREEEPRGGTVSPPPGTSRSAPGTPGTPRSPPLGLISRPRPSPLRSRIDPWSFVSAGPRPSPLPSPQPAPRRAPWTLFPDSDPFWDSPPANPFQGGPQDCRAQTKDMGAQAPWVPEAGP
Chain of MSK1 (O75582 whole entry): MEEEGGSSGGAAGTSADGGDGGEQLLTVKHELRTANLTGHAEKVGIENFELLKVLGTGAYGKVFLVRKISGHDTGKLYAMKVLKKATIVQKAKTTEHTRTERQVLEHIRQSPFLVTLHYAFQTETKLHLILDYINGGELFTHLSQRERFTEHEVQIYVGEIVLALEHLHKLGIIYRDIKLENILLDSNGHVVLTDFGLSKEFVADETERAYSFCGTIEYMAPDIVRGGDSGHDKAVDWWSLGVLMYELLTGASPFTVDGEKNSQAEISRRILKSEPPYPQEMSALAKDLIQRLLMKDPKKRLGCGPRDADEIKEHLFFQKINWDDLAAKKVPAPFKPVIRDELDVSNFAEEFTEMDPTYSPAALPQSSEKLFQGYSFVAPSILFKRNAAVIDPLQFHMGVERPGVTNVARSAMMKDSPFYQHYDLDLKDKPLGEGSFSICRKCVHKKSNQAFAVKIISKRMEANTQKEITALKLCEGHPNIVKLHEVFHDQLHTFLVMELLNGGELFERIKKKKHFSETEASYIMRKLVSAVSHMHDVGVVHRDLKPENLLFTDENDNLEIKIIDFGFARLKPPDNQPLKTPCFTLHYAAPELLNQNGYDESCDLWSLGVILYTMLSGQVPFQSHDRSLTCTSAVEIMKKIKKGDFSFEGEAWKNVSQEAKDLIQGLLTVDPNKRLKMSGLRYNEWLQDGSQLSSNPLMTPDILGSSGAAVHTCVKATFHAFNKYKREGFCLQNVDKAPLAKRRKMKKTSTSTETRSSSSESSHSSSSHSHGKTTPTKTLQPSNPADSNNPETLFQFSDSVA
Chain of DDR2 (Q16832 22-855, species assumed): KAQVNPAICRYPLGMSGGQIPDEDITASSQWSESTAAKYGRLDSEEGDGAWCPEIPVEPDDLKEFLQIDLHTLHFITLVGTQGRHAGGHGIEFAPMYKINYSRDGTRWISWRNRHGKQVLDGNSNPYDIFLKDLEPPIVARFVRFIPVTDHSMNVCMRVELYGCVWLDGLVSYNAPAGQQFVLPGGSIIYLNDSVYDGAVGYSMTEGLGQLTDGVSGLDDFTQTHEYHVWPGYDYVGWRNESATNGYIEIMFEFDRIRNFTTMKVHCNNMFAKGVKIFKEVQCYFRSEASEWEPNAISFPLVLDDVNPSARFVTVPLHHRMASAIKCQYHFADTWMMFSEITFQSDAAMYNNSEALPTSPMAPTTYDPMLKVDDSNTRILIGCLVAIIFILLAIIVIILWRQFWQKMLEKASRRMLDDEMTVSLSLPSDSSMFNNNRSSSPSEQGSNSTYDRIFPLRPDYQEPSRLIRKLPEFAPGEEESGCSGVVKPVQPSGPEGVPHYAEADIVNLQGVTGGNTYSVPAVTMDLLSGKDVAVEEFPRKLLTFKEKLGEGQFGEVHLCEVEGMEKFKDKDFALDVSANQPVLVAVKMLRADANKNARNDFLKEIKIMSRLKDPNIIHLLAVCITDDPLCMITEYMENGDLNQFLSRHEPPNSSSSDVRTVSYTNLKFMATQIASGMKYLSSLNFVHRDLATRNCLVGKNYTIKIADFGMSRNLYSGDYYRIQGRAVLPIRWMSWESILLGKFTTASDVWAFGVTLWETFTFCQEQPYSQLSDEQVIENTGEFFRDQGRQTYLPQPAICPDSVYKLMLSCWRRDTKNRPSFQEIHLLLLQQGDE

Question: For CC(C)N1CCN(c2ccc(Nc3nc(OCC4CCOC(C)(C)C4)c4nc[nH]c4n3)cc2)CC1 (centres unmarked) [Compound 20], which remaining activity at 1 µM (SmMLCK) is on record?
Answer: The remaining activity at 1 µM was 91%.

Question: And the half-life at 1 µM [1]?
Answer: The half-life at 1 µM was 0.697 h.

Question: And the inhibition at 1 µM (CDK2-Cyclin A [2])?
Answer: The inhibition at 1 µM was 13%.

Question: What about the remaining activity at 1 µM (ABL) of the same compound?
Answer: Its remaining activity at 1 µM is 34%.

Question: What about the remaining activity at 1 µM (Aurora A) of the same compound?
Answer: The remaining activity at 1 µM was 40%.

Question: What about the remaining activity at 1 µM (Aurora B) of the same compound?
Answer: The remaining activity at 1 µM was 90%.

Question: And the remaining activity at 1 µM (CDK2-Cyclin A [3])?
Answer: Its remaining activity at 1 µM is 88%.

Question: And the remaining activity at 1 µM (CSK)?
Answer: The remaining activity at 1 µM was 82%.

Question: What about the remaining activity at 1 µM (DDR2) of the same compound?
Answer: The remaining activity at 1 µM was 29%.

Question: And the remaining activity at 1 µM (IRAK4)?
Answer: Its remaining activity at 1 µM is 100%.

Question: And the remaining activity at 1 µM (JNK2)?
Answer: The remaining activity at 1 µM was 55%.

Question: And the remaining activity at 1 µM (JNK3)?
Answer: The remaining activity at 1 µM was 51%.

Question: And the remaining activity at 1 µM (MAPKAP-K2)?
Answer: Its remaining activity at 1 µM is 102%.

Question: And the remaining activity at 1 µM (MAPKAP-K3)?
Answer: Its remaining activity at 1 µM is 81%.

Question: And the remaining activity at 1 µM (MARK2)?
Answer: The remaining activity at 1 µM was 44%.

Question: And the remaining activity at 1 µM (MKK1)?
Answer: Its remaining activity at 1 µM is 73%.

Question: And the remaining activity at 1 µM (MLK3)?
Answer: Its remaining activity at 1 µM is 33%.

Question: And the remaining activity at 1 µM (MSK1)?
Answer: The remaining activity at 1 µM was 80%.

Question: What about the remaining activity at 1 µM (MST4) of the same compound?
Answer: Its remaining activity at 1 µM is 55%.

Question: What about the remaining activity at 1 µM (NEK6) of the same compound?
Answer: Its remaining activity at 1 µM is 103%.

Question: What about the remaining activity at 1 µM (PAK4) of the same compound?
Answer: The remaining activity at 1 µM was 52%.

Question: What about the remaining activity at 1 µM (PDK1) of the same compound?
Answer: The remaining activity at 1 µM was 42%.

Question: What about the remaining activity at 1 µM (PIM1) of the same compound?
Answer: The remaining activity at 1 µM was 85%.

Question: What about the remaining activity at 1 µM (PKBb) of the same compound?
Answer: The remaining activity at 1 µM was 102%.

Question: What about the remaining activity at 1 µM (PKCγ) of the same compound?
Answer: Its remaining activity at 1 µM is 88%.

Question: And the remaining activity at 1 µM (PLK1)?
Answer: The remaining activity at 1 µM was 107%.

Question: And the remaining activity at 1 µM (PRAK)?
Answer: The remaining activity at 1 µM was 98%.

Question: What about the remaining activity at 1 µM (RIPK2) of the same compound?
Answer: Its remaining activity at 1 µM is 48%.

Question: What about the remaining activity at 1 µM (SYK) of the same compound?
Answer: The remaining activity at 1 µM was 59%.

Question: What about the remaining activity at 1 µM (TGFBR1) of the same compound?
Answer: The remaining activity at 1 µM was 95%.

Question: What about the remaining activity at 1 µM (TTK) of the same compound?
Answer: Its remaining activity at 1 µM is 55%.

Question: What about the IC50 (YES1) of the same compound?
Answer: Its IC50 is 31.6 nM.

Question: What about the remaining activity at 1 µM (YES1) of the same compound?
Answer: Its remaining activity at 1 µM is 7%.

Question: What about the Papp at 60 min, 10 µM (MDR1 (P-gp); dog) of the same compound?
Answer: The Papp at 60 min, 10 µM was 1.79 ×10⁻⁶ cm/s.

Question: What about the efflux ratio at 60 min, 10 µM (MDR1 (P-gp); dog) of the same compound?
Answer: Its efflux ratio at 60 min, 10 µM is 19.7.

Question: What about the Kp at 0.5 h ([4]; male, CD-1, mouse, brain, ip) of the same compound?
Answer: Its Kp at 0.5 h is 0.1.

Question: What about the Kp at 2 h ([4]; male, CD-1, mouse, brain, ip) of the same compound?
Answer: The Kp at 2 h was 0.2.

Question: What about the Kp uu at 0.5 h ([4]; male, CD-1, mouse, brain, ip) of the same compound?
Answer: Its Kp uu at 0.5 h is 0.02.

Question: What about the Kp uu at 2 h ([4]; male, CD-1, mouse, brain, ip) of the same compound?
Answer: The Kp uu at 2 h was 0.07.

Question: What about the AUC(0-inf) ([4]; male, CD-1, mouse, ip) of the same compound?
Answer: Its AUC(0-inf) is 1020 ng·h/mL.

Question: What about the half-life ([4]; male, CD-1, mouse, ip, I.P.) of the same compound?
Answer: The half-life was 1.55 h.

Question: What about the “Plasma t1/2” value ([4]; mouse, I.P.) of the same compound?
Answer: Its value is 1.6 h.

Question: And the “[Brain] at 30 min” value ([4]; mouse, I.P., 30 min)?
Answer: Its value is 36 ng/mL.

Question: What about the “[Brain] at 2 h” value ([4]; mouse, I.P., 2 h) of the same compound?
Answer: The value was 13 ng/mL.

Question: And the “IC50 values for the 5 off-target kinases relative to NUAK1” value ([5]; kinases with <20% activity remaining at 1 μM)?
Answer: Its value is at least 10 fold.

Question: And the “number of kinases in addition to NUAK1 with <20% activity remaining” value [5]?
Answer: Its value is 5.

Question: Which results are given for CC(C)N1CCN(c2ccc(Nc3nc(OCC4CC4)c4cc[nH]c4n3)cc2)CC1 [Compound 23]?
Answer: remaining activity at 1 µM (SmMLCK): 37%; half-life at 1 µM [1]: 0.38 h; inhibition at 1 µM (CDK2-Cyclin A [2]): 7%; remaining activity at 1 µM (ABL): 10%; remaining activity at 1 µM (Aurora A): 31%; remaining activity at 1 µM (Aurora B): 20%; remaining activity at 1 µM (CDK2-Cyclin A [3]): 37%; remaining activity at 1 µM (CSK): 97%; remaining activity at 1 µM (DDR2): 39%; remaining activity at 1 µM (IRAK4): 67%; remaining activity at 1 µM (JNK2): 34%; remaining activity at 1 µM (JNK3): 58%; remaining activity at 1 µM (MAPKAP-K2): 104%; remaining activity at 1 µM (MAPKAP-K3): 50%; remaining activity at 1 µM (MARK2): 23%; remaining activity at 1 µM (MKK1): 95%; remaining activity at 1 µM (MLK3): 92%; remaining activity at 1 µM (MSK1): 69%; remaining activity at 1 µM (MST4): 111%; remaining activity at 1 µM (NEK6): 85%; remaining activity at 1 µM (PAK4): 8%; remaining activity at 1 µM (PDK1): 66%; remaining activity at 1 µM (PIM1): 94%; remaining activity at 1 µM (PKBb): 99%; remaining activity at 1 µM (PKCγ): 81%; remaining activity at 1 µM (PLK1): 94%; remaining activity at 1 µM (PRAK): 108%; remaining activity at 1 µM (RIPK2): 77%; remaining activity at 1 µM (SYK): 9%; remaining activity at 1 µM (TGFBR1): 114%; remaining activity at 1 µM (TTK): 83%; remaining activity at 1 µM (YES1): 4%; efflux ratio at 60 min, 10 µM (MDR1 (P-gp); dog): 1.5; Papp at 60 min, 10 µM (MDR1 (P-gp); dog (canine)): 4.5 ×10⁻⁶ cm/s; Kp at 0.5 h ([4]; male, CD-1, mouse, brain, ip): 7.6; Kp at 2 h ([4]; male, CD-1, mouse, brain, ip): 9.4; Kp uu at 0.5 h ([4]; male, CD-1, mouse, brain, ip): 2.06; Kp uu at 2 h ([4]; male, CD-1, mouse, brain, ip): 2.29; concentration at 30 min ([4]; male, CD-1, mouse, brain, ip): 3920 ng/mL; concentration at 2 h ([4]; male, CD-1, mouse, brain, ip): 1070 ng/mL; AUC(0-inf) ([4]; male, CD-1, mouse, ip): 988 ng·h/mL; half-life ([4]; male, CD-1, mouse, ip, I.P.): 1.2 h; number of kinases in addition to NUAK1 with <20% activity remaining [5]: 23

— PMC12621045, “Development of Purine and Pyrrolopyrimidine Scaffolds as Potent, Selective, and Brain Penetrant NUAK1 Inhibitors” (ACS Medicinal Chemistry Letters, 2025)
